The text below walks through data of patent US20240401154A1, “SYNTHESIS AND PREPARATION OF ULTRA-LOW VISCOSITY AND HIGH MAGNETIC SUSCEPTIBILITY MAGNETIC IONIC LIQUIDS” (priority 2023, published 2024).

Type in all cases: physicochemical
Data set [1] is described as follows: Viscosity, Brookfield DVI cone and plate viscometer. Particulars: 21.7° C.; neat MIL dried 48 hours under vacuum. The method, then: A Brookfield DVI cone and plate viscometer equipped with a CPA-51Z cone spindle was employed to obtain viscosity measurements at […] using approximately 0.5 g of each MIL after extensive drying for 48 hours under vacuum. Viscosity measurements were conducted at 21.7° C. for 15 lanthanide and transition metal MILs examined in this study.
Viscosity measurements were conducted at 21.7° C. for 15 lanthanide and transition metal MILs examined in this study.

Data set [2] can be described thus: Thermal stability, MIL as GC stationary phase with FID. Conditions: exponential increase in response beyond 2,000 pA. The protocol:
(§1) The thermal stability of MILs was measured from 40 to 350° C. at a ramp rate of 5° C. min^−1 by performing thermogravimetric analysis (TGA) using a NETZSCH STA 449 F1 Jupiter thermal analyzer (Selb, Germany). To further investigate the thermal stability of MILs using a more sensitive technique, the solvents were employed as a gas chromatographic (GC) stationary phase and subjected to an oven temperature program from 40 to 200° C. at a ramp rate of 1° C. min^−1 and decomposition/degradation products detected using an ultra-sensitive flame ionization detector (FID), with all measurements being performed on an Agilent Technologies 7890B gas chromatograph (Santa Clara, CA, USA).
To further investigate the thermal stability of MILs using a more sensitive technique, the solvents were employed as a gas chromatographic (GC) stationary phase and subjected to an oven temperature program from 40 to 200° C. at a ramp rate of 1° C. min^−1 and decomposition/degradation products detected using an ultra-sensitive flame ionization detector (FID).

The nature of data set [3]: Effective magnetic moment from magnetic susceptibility balance (MSB). Particulars: per formula unit. The method, then: Magnetic properties were analyzed using a magnetic susceptibility balance (MSB, Sherwood Scientific, Cambridge, UK) and a Quantum Design Superconducting Quantum Interference Device (SQUID) magnetometer (MPMS XL-7). The magnetic properties of transition metal MILs were further studied using a SQUID magnetometer to confirm their paramagnetic nature as well as if any magnetic transition occurs in the samples.
Magnetic susceptibility (XM) was calculated through Equation (1).
Effective magnetic moment (μeff) was calculated through Equation (2). In Equation (2), T represents the temperature at which the magnetic susceptibility measurements were conducted.
15 MILs incorporating rare-earth and transition metals were examined using a magnetic susceptibility balance (MSB).

Data set [4] can be described thus: Solubility of MILs in organic solvents and water. An excerpt: The solubility of lanthanide and transition metal MILs was investigated in popular traditional organic solvents. […]
The solubility of lanthanide and transition metal MILs was investigated in popular traditional organic solvents.

Data set [5] can be described thus: Thermal stability by thermogravimetric analysis (TGA). Conditions: TGA at 10% weight loss. The protocol: as §1
Volitization/degradation of MILs as a function of temperature were measured using thermogravimetric analysis. The thermal stability of magnetic ionic liquids was measured from 40 to 350° C. at a ramp rate of 5° C. min^−1 by performing thermogravimetric analysis (TGA) using a NETZSCH STA 449 F1 Jupiter thermal analyzer (Selb, Germany).
To investigate the ability of DGE-based MILs to withstand elevated temperatures without undergoing degradation/decomposition, their thermal stabilities were investigated using thermogravimetric analysis (TGA). FIG. 13 through FIG. 27 display thermograms for MILs 1 to 15. The thermogram results are summarized in greater detail in the following paragraphs.

Where [6] appears, read: acetone, chloroform, dichloromethane, acetonitrile, methanol, ethanol, diethyl ether, ethyl acetate, isopropanol at 20% (w/v).
The mark [7] stands for this setting: hexane, heptane, benzene, toluene at 10% (w/v).
Setting [8] is: hexane, heptane, benzene, toluene at 20% (w/v).
The mark [9] stands for this setting: twelve organic solvents (without acetonitrile) at 50% (w/v).

With `CCCCCCOC(=O)COCC(=O)OCCCCCC.CCCCCCOC(=O)COCC(=O)OCCCCCC.CCCCCCOC(=O)COCC(=O)OCCCCCC.CCCCCCOC(=O)COCC(=O)OCCCCCC.CCCCCCOC(=O)COCC(=O)OCCCCCC.CCCCCCOC(=O)COCC(=O)OCCCCCC.O=C(C=C([O-])C(F)(F)F)C(F)(F)F.O=C(C=C([O-])C(F)(F)F)C(F)(F)F.O=C(C=C([O-])C(F)(F)F)C(F)(F)F.O=C(C=C([O-])C(F)(F)F)C(F)(F)F.O=C(C=C([O-])C(F)(F)F)C(F)(F)F.O=C(C=C([O-])C(F)(F)F)C(F)(F)F.[Co+2].[Co+2].[Co+2]` [MIL 1], the “Viscosity (cP)” value in data set [1] came out at 175.0 cP.
On to `CCCCCCCCOC(=O)COCC(=O)OCCCCCCCC.CCCCCCCCOC(=O)COCC(=O)OCCCCCCCC.CCCCCCCCOC(=O)COCC(=O)OCCCCCCCC.CCCCCCCCOC(=O)COCC(=O)OCCCCCCCC.CCCCCCCCOC(=O)COCC(=O)OCCCCCCCC.CCCCCCCCOC(=O)COCC(=O)OCCCCCCCC.O=C(C=C([O-])C(F)(F)F)C(F)(F)F.O=C(C=C([O-])C(F)(F)F)C(F)(F)F.O=C(C=C([O-])C(F)(F)F)C(F)(F)F.O=C(C=C([O-])C(F)(F)F)C(F)(F)F.O=C(C=C([O-])C(F)(F)F)C(F)(F)F.O=C(C=C([O-])C(F)(F)F)C(F)(F)F.O=C(C=C([O-])C(F)(F)F)C(F)(F)F.O=C(C=C([O-])C(F)(F)F)C(F)(F)F.[Co+2].[Gd+3].[Gd+3]` [MIL 14], for which the “Onset of MIL volatilization (° C.)^1” value in data set [2] (listed as [Co(C8-DGE)6][Gd(hfacac)4]2) is “approximately 120 °C”.
Consider `CCCCCCCCOC(=O)COCC(=O)OCCCCCCCC.CCCCCCCCOC(=O)COCC(=O)OCCCCCCCC.CCCCCCCCOC(=O)COCC(=O)OCCCCCCCC.CCCCCCCCOC(=O)COCC(=O)OCCCCCCCC.CCCCCCCCOC(=O)COCC(=O)OCCCCCCCC.CCCCCCCCOC(=O)COCC(=O)OCCCCCCCC.O=C(C=C([O-])C(F)(F)F)C(F)(F)F.O=C(C=C([O-])C(F)(F)F)C(F)(F)F.O=C(C=C([O-])C(F)(F)F)C(F)(F)F.O=C(C=C([O-])C(F)(F)F)C(F)(F)F.O=C(C=C([O-])C(F)(F)F)C(F)(F)F.O=C(C=C([O-])C(F)(F)F)C(F)(F)F.O=C(C=C([O-])C(F)(F)F)C(F)(F)F.O=C(C=C([O-])C(F)(F)F)C(F)(F)F.[Co+2].[Ho+3].[Ho+3]` [MIL 15], for which the “Onset of MIL volatilization (° C.)^1” value in data set [2] (listed as [Co(C8-DGE)6][Ho(hfacac)4]2) is “approximately 120 °C”.
On to `CCCCCCOC(=O)COCC(=O)OCCCCCC.CCCCCCOC(=O)COCC(=O)OCCCCCC.CCCCCCOC(=O)COCC(=O)OCCCCCC.CCCCCCOC(=O)COCC(=O)OCCCCCC.CCCCCCOC(=O)COCC(=O)OCCCCCC.CCCCCCOC(=O)COCC(=O)OCCCCCC.O=C(C=C([O-])C(F)(F)F)C(F)(F)F.O=C(C=C([O-])C(F)(F)F)C(F)(F)F.O=C(C=C([O-])C(F)(F)F)C(F)(F)F.O=C(C=C([O-])C(F)(F)F)C(F)(F)F.O=C(C=C([O-])C(F)(F)F)C(F)(F)F.O=C(C=C([O-])C(F)(F)F)C(F)(F)F.[Ni+2].[Ni+2].[Ni+2]` [compound 2], for which the “Viscosity (cP)” value in data set [1] is 248.6 cP. The “μeff, effective magnetic moment” value in data set [3] was 5.48 μB. The Solubility entry is “S^b (soluble in acetone, chloroform, dichloromethane, acetonitrile, methanol, ethanol, diethyl ether, ethyl acetate, and isopropanol at 20% (w/v).)” in data set [4] (setting [6]); “S^e (insoluble in acetonitrile at 50% (w/v).)” in data set [4] (acetonitrile at 50% (w/v)); “S^a (soluble in hexane, heptane, benzene, and toluene at 10% (w/v).)” in data set [4] (setting [7]); “S^c (soluble in hexane, heptane, benzene, and toluene at 20% (w/v).)” in data set [4] (setting [8]); “S^d (soluble in acetone, chloroform, dichloromethane, methanol, ethanol, diethyl ether, ethyl acetate, isopropanol hexane, heptane, benzene, and toluene at 50% (w/v).)” in data set [4] (setting [9]); “S^f (insoluble in water at 0.01% (w/v).)” in data set [4] (water at 0.01% (w/v)). Further, the “Onset of MIL volatilization (° C.)^1” value in data set [2] was found to be 166 °C. In addition, in data set [5], the “Onset of MIL volatilization (° C.)^2” value amounted to 257.0 °C.
For the molecule `CCCCCCOC(=O)COCC(=O)OCCCCCC.CCCCCCOC(=O)COCC(=O)OCCCCCC.CCCCCCOC(=O)COCC(=O)OCCCCCC.CCCCCCOC(=O)COCC(=O)OCCCCCC.CCCCCCOC(=O)COCC(=O)OCCCCCC.CCCCCCOC(=O)COCC(=O)OCCCCCC.O=C(C=C([O-])C(F)(F)F)C(F)(F)F.O=C(C=C([O-])C(F)(F)F)C(F)(F)F.O=C(C=C([O-])C(F)(F)F)C(F)(F)F.O=C(C=C([O-])C(F)(F)F)C(F)(F)F.O=C(C=C([O-])C(F)(F)F)C(F)(F)F.O=C(C=C([O-])C(F)(F)F)C(F)(F)F.[Mn+2].[Mn+2].[Mn+2]` [compound 3], the “Viscosity (cP)” value in data set [1] worked out at 63.2 cP. In addition, the “μeff, effective magnetic moment” value in data set [3] was found to be 10.42 μB. The Solubility entry was “S^b (soluble in acetone, chloroform, dichloromethane, acetonitrile, methanol, ethanol, diethyl ether, ethyl acetate, and isopropanol at 20% (w/v).)” in data set [4] (setting [6]); “S^e (insoluble in acetonitrile at 50% (w/v).)” in data set [4] (acetonitrile at 50% (w/v)); “S^a (soluble in hexane, heptane, benzene, and toluene at 10% (w/v).)” in data set [4] (setting [7]); “S^c (soluble in hexane, heptane, benzene, and toluene at 20% (w/v).)” in data set [4] (setting [8]); “S^d (soluble in acetone, chloroform, dichloromethane, methanol, ethanol, diethyl ether, ethyl acetate, isopropanol hexane, heptane, benzene, and toluene at 50% (w/v).)” in data set [4] (setting [9]); “S^f (insoluble in water at 0.01% (w/v).)” in data set [4] (water at 0.01% (w/v)). The “Onset of MIL volatilization (° C.)^1” value in data set [2] worked out at 168 °C. For the same molecule, the “Onset of MIL volatilization (° C.)^2” value in data set [5] is 256.8 °C.
For the molecule `CCCCCCCCOC(=O)COCC(=O)OCCCCCCCC.CCCCCCCCOC(=O)COCC(=O)OCCCCCCCC.CCCCCCCCOC(=O)COCC(=O)OCCCCCCCC.CCCCCCCCOC(=O)COCC(=O)OCCCCCCCC.CCCCCCCCOC(=O)COCC(=O)OCCCCCCCC.CCCCCCCCOC(=O)COCC(=O)OCCCCCCCC.O=C(C=C([O-])C(F)(F)F)C(F)(F)F.O=C(C=C([O-])C(F)(F)F)C(F)(F)F.O=C(C=C([O-])C(F)(F)F)C(F)(F)F.O=C(C=C([O-])C(F)(F)F)C(F)(F)F.O=C(C=C([O-])C(F)(F)F)C(F)(F)F.O=C(C=C([O-])C(F)(F)F)C(F)(F)F.[Co+2].[Co+2].[Co+2]` [compound 4], the “Viscosity (cP)” value in data set [1] came out at 31.6 cP. The “μeff, effective magnetic moment” value in data set [3] is 8.57 μB. Further, the Solubility result in data set [4] (setting [6]) was “S^b (soluble in acetone, chloroform, dichloromethane, acetonitrile, methanol, ethanol, diethyl ether, ethyl acetate, and isopropanol at 20% (w/v).)”; in data set [4] (setting [7]), “S^a (soluble in hexane, heptane, benzene, and toluene at 10% (w/v).)”; in data set [4] (setting [8]), “S^c (soluble in hexane, heptane, benzene, and toluene at 20% (w/v).)”; in data set [4] (setting [9]), “S^d (soluble in acetone, chloroform, dichloromethane, methanol, ethanol, diethyl ether, ethyl acetate, isopropanol hexane, heptane, benzene, and toluene at 50% (w/v).)”; in data set [4] (water at 0.01% (w/v)) it was “S^f (insoluble in water at 0.01% (w/v).)”. In addition, the “Onset of MIL volatilization (° C.)^1” value in data set [2] was 185 °C. The “Onset of MIL volatilization (° C.)^2” value in data set [5] was 262.9 °C.
